Measurements published in patent US4521422A, “Aryl and heteroaryl[7-(aryl and heteroaryl)pyrazolo[1,5-a]pyrimidin-3-yl]methanones” (American Cyanamid Company, priority 1984, dated 1985).

Tests used:
[1] = tested on: Nonconditioned Passive Avoidance in Rats; test: Nonconditioned passive avoidance (conflict) test in rats; assay type: in vivo, rat (Wistar); design: key: Active: considered active if the number of shocks received by the test group is significantly higher than the control group by the Mann-Witney U test; settings: oral or i.p.
Description: Another test which has been used to assess anti-anxiety effects is a nonconditioned passive avoidance procedure described by [J. R. Vogel, B. Beer and D. E. Clody, "A Simple and Reliable Conflict Procedure for Testing Anti-Anxiety Agents", Psychopharmacologia, 21, 1-7 (1971)]. A conflict situation is induced in rats by a modification of this method.
Groups of 6 naive, Wistar strain rats, weighing 200-240 g each were deprived of water for 48 hours and food for 24 hours. The test compounds were administered in single or graded, oral or intraperitoneal doses, suspended in a 2% starch vehicle containing 0.5% v/v polyethylene glycol and one drop of polysorbate 80. Control animals received the vehicle alone. At 30 to 60 minutes each rat was placed in an individual plexiglass chamber. Water was available ad libitum from a tap located in the rear of the chamber. A 0.7 milliampere DC shocking current was established between the stainless steel grid floor and the tap. After 20 licks of non-shocked drinking, a shock was delivered for 2 seconds and then further shocks were delivered on a ratio of one shock for 2 seconds for every 20 licks. This was continued for a total of 3 minutes. The number of shocks taken by each rat during the 3 minute interval was recorded and compared to a control group. […]

[2] = tested on: Ethanol Induced Narcosis in Rats; test: Effects on the duration of ethanol induced narcosis in rats; assay type: in vivo; settings: Rattus norvegicus; lowest dose causing significant (p≤0.05) increase in duration of narcosis; oral, 60 min before 3.2 g/kg i.p. ethanol; read-out: MED
Description: The sedative-hypnotic properties of the novel compounds of the instant invention have been established by their effect on the duration of ethanol induced narcosis in rats as a measurement of sedation. Groups of at least 8 rats were administered graded oral doses of the test compounds or vehicle 60 minutes prior to intraperitoneal treatment with 3.2 g/kg ethanol. Rats were then observed continuously for 180 minutes for the incidence and duration of ethanol induced narcosis. […] The duration of narcosis was the total time the rat remained in a supine position. The MED [lowest dose necessary to cause a significant (p≤0.05, two-tailed Student's t test) increase in the duration of ethanol induced narcosis in rats] of representative compounds of this invention are shown in Table IV. Test compounds were dissolved or suspended in a 2% aqueous starch suspension containing 5% polyethyleneglycol 400 and a drop of Tween®80; ethanol (95%) was adjusted to final concentration (V:V) with 0.85% saline. All treatments were administered in a constant volume of 5 ml/kg.

[3] = tested on: Clonic Seizures Caused by Pentylenetetrazole in Rats; test: Protection against clonic seizures caused by pentylenetetrazole in rats; assay type: in vivo; settings: Rattus norvegicus, oral or i.p., read-out: % of Rats Protected; for responders at 25 mg/kg: pentylenetetrazole 23 mg/kg i.v. at 30 or 60 min
Summary of the method: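 Rats (at least 4 per group) given single or graded oral or intraperitoneal doses in starch/PEG/Polysorbate 80 vehicle. After 30 or 60 min, pentylenetetrazole 23 mg/kg i.v. was given, a dose expected to induce clonic seizures in 99% of unprotected rats. Protection from convulsions was scored.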

[4] = tested on: Brain-Specific Receptors of Rats; test: Inhibition of the binding of 3H-benzodiazepine to brain-specific receptors of rats; design: species or system rat (Wistar); settings: 3H-diazepam 1.5 nM or 3H-flunitrazepam 1.0 nM; rat cortex P2 fraction; test concentration not given
[5] = tested on: Ability of Rats to Remain on an Inclined Screen; test: Effect on ability of rats to remain on an inclined screen; assay type: in vivo; settings: Rattus norvegicus, 65 min; dose necessary to cause 50% of animals to fall off; oral; 60° screen, 65 min after dosing
Description: The first test measures the effect of representative compounds on the ability of rats to remain on an inclined screen. Groups of at least 6 rats were treated orally with graded doses of test compounds or vehicle and placed on a wire mesh screen (inclined at an angle of 60° from a horizontal level) 65 minutes later. The number of rats falling off the screen within 30 minutes was recorded. The ED50 (dose necessary to cause 50% of the animals tested to fall off) was calculated according to the linear arc-sine transformation method of Finney, D. J. Statistical Methods in Biological Assay, 2nd Ed., Hafner, N. Y., 1964, pp. 454 ff. Compounds were dissolved or suspended in a 2% aqueous starch suspension containing 5% polyethylene glycol 400 and a drop of polysorbate 80, and administered in a constant volume of 5 ml/kg.

[6] = tested on: Locomotor Activity in Rats; test: Effects on locomotor activity in rats; assay type: in vivo; settings: Rattus norvegicus, 1 h; dose causing 50% decrease in mean activity counts vs vehicle; oral, 60 min; read-out: MDD50
Description: Groups of 6 rats were treated orally with vehicle (5 ml/kg) or graded doses of the test compounds. Sixty minutes later, individual rats were placed in Actophotometers and locomotor activity was measured for 5 minutes after a brief (30 sec.) habituation period. Motor Activity Counts (number of crossings of the photo cells) were recorded for each rat, and mean activity counts were calculated for each treatment group. The dose causing a 50% decrease in mean activity counts compared with the vehicle group (MDD50) was calculated from a linear regression equation.

Compound | Result (nonconditioned passive avoidance) ([1]; dose 25.0 mg/kg) | minimal effective dose [2] [mg/kg] | responders at 25 mg/kg [3] [%] | % Inhibition [4] [%] | ED50 [5] [mg/kg] | ED50 [6] [mg/kg] | Result (nonconditioned passive avoidance) ([1]; dose 12.5 mg/kg) | responders at 12.5 mg/kg ([3]; dose 12.5 mg/kg, pentylenetetrazole 23 mg/kg i.v.) [%]
O=C(c1ccco1)c1cnn2c(-c3cccnc3)ccnc12 [2-Furanyl[7-(3-pyridinyl)pyrazolo[1,5-a]pyrimidin-3-yl]methanone] | Active | 32 | 100 | 72 | 167 | 500 |  | 
O=C(c1ccco1)c1cnn2c(-c3cccc(C(F)(F)F)c3)ccnc12 [2-furanyl[7-[3-(trifluoromethyl)phenyl]pyrazolo[1,5-a]pyrimidin-3-yl]methanone] | Active | 32 | 100 | 98 |  |  |  | 
O=C(c1ccccn1)c1cnn2c(-c3ccncc3)ccnc12 [2-pyridinyl[7-(4-pyridinyl)pyrazolo[1,5-a]pyrimidin-3-yl]methanone] | Active |  | 100 | 29 |  | 101 |  | 
O=C(c1ccccn1)c1cnn2c(-c3cccc(C(F)(F)F)c3)ccnc12 [2-pyridinyl[7-[3-(trifluoromethyl)phenyl]pyrazolo[1,5-a]pyrimidin-3-yl]methanone] | Active |  | 100 | 93 | 6.9 | 7 |  | 
O=C(c1ccccc1Cl)c1cnn2c(-c3cccnc3)ccnc12 [(2-chlorophenyl)[7-(3-pyridinyl)pyrazolo[1,5-a]pyrimidin-3-yl]methanone] | Active | 4 | 100 | 24 |  |  |  | 
COc1ccc(C(=O)c2cnn3c(-c4cccnc4)ccnc23)cc1OC [(3,4-dimethoxyphenyl)[7-(3-pyridinyl)pyrazolo[1,5-a]pyrimidin-3-yl]methanone] | Active |  | 87 | 75 |  |  |  | 
O=C(c1cccc(F)c1)c1cnn2c(-c3cccnc3)ccnc12 [(3-fluorophenyl)[7-(3-pyridinyl)pyrazolo[1,5-a]pyrimidin-3-yl]methanone] | Active |  | 100 | 20 |  |  |  | 
Cc1cccc(C(=O)c2cnn3c(-c4cccnc4)ccnc23)c1 [(3-methylphenyl)[7-(3-pyridinyl)pyrazolo[1,5-a]pyrimidin-3-yl]methanone] | Active |  | 100 | 70 |  |  |  | 
O=C(c1ccc(F)cc1)c1cnn2c(-c3ccncc3)ccnc12 [(4-Fluorophenyl)[7-(4-pyridinyl)pyrazolo[1,5-a]pyrimidin-3-yl]methanone] | Active | 6 | 100 |  | 98 | 48.9 |  | 
COc1ccc(C(=O)c2cnn3c(-c4cccnc4)ccnc23)cc1 [(4-Methoxyphenyl)[7-(3-pyridinyl)pyrazolo[1,5-a]pyrimidin-3-yl]methanone] |  |  | 100 |  | 11.9 | 10.5 | Active | 
Cc1ccc(C(=O)c2cnn3c(-c4cccnc4)ccnc23)cc1 [(4-Methylphenyl)[7-(3-pyridinyl)pyrazolo[1,5-a]pyrimidin-3-yl]methanone] | Active |  | 100 | 56 | 11.1 | 13.2 |  | 
O=C(c1ccc(F)cc1)c1cnn2c(-c3ccc(F)cc3)ccnc12 [(4-fluorophenyl)[7-(4-fluorophenyl)pyrazolo[1,5-a]pyrimidin-3-yl]methanone] | Active |  | 75 | 34 |  |  |  | 
O=C(c1ccc(F)cc1)c1cnn2c(-c3cccc(C(F)(F)F)c3)ccnc12 [(4-fluorophenyl)[7-[3-(trifluoromethyl)phenyl]pyrazolo[1,5-a]pyrimidin-3-yl]methanone] | Active |  |  | 50 |  |  |  | 38
O=C(c1ccccc1)c1cnn2c(-c3cccnc3)ccnc12 [Phenyl[7-(3-pyridinyl)pyrazolo[1,5-a]pyrimidin-3-yl]methanone] | Active | 16 | 100 | 45 | 68.5 | 51.4 |  | 
O=C(c1ccccc1)c1cnn2c(-c3cc[n+]([O-])cc3)ccnc12 [Phenyl[7-(4-pyridinyl)pyrazolo[1,5-a]pyrimidin-3-yl]methanone, pyridine-1-oxide] | Active |  | 100 | 39 |  |  |  | 
Cc1cnc2c(C(=O)c3ccccc3)cnn2c1-c1ccncc1 [[6-methyl-7-(4-pyridinyl)pyrazolo[1,5-a]pyrimidin-3-yl]phenyl-methanone] | Active |  | 100 | 56 |  |  |  | 
O=C(c1ccccn1)c1cnn2c(-c3ccc(F)cc3)ccnc12 [[7-(4-fluorophenyl)pyrazolo[1,5-a]pyrimidin-3-yl]-2-pyridinyl-methanone] | Active |  | 50 | 64 |  |  |  | 
O=C(c1ccccc1)c1cnn2c(-c3ccc(F)cc3)ccnc12 [[7-(4-fluorophenyl)pyrazolo[1,5-a]pyrimidin-3-yl]phenyl-methanone] | Active |  | 100 | 18 |  |  |  | 
O=C(c1ccccc1)c1cnn2c(-c3ccncc3)ccnc12 [phenyl[7-(4-pyridinyl)pyrazolo[1,5-a]pyrimidin-3-yl]methanone] | Active | 8 | 100 |  | 9.9 | 21.2 |  | 
O=C(c1ccccc1)c1cnn2c(-c3cccc(C(F)(F)F)c3)ccnc12 [phenyl[7-[3-(trifluoromethyl)phenyl]pyrazolo[1,5-a]pyrimidin-3-yl]methanone] | Active |  | 100 | 93 | 5.5 | 5.5 |  | 
